Source: US20260116867A1, “PROTEOLYSIS TARGETING CHIMERAS FOR HUMAN PREGNANE X RECEPTOR AND FOR DEGRADATION OF GSPT1” (ST. JUDE CHILDREN'S RESEARCH HOSPITAL, priority 2022, published 2026)

How the values were obtained:
PXR [1] = target: T1, PXR (Homo sapiens, UniProt O75469); assay: hPXR binding assay; details: for inhibition at 10 µM: read-out: Binding (% inhibition at 10 μM)
T1 sequence (O75469 1-434): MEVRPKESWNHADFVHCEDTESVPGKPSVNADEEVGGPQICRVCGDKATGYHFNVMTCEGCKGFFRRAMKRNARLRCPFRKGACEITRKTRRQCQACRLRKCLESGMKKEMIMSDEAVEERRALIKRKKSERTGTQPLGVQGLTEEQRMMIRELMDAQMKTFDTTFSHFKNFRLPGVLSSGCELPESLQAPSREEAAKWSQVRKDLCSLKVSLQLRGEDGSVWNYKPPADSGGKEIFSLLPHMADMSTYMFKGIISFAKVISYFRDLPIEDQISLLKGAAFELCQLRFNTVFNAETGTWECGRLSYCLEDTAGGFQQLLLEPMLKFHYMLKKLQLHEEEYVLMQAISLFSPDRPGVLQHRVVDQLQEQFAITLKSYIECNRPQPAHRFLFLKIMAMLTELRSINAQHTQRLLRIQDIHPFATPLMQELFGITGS

PXR [2] = target: T1, PXR; assay: cell-based hPXR inverse agonistic assay; details: for inhibition at 10 µM: read-out: Inverse agonist (% inhibition at 10 μM); for IC50: read-out: Inverse agonist (IC50/μM)
PXR [3] = target: T1, PXR; assay: cell-based hPXR antagonistic assay; details: for inhibition at 10 µM: read-out: Antagonist (% inhibition at 10 μM); for IC50: read-out: Antagonist (IC50/μM)
His-CRBN/DDB1 = target: T2, His-CRBN/DDB1 (Homo sapiens, UniProt Q96SW2); assay: TR-FRET CRBN competitive binding assay (BODIPY FL thalidomide probe); details: TR-FRET competitive binding, derived from FIG. 9D; read-out: CRBN Binding EC50 ± SD
T2 construct: made in house; host or cells: Sf9 insect cells (baculovirus)
Experimental: The pFastBacDual-6xHis-CRBN/DDB1 plasmid was cloned by GenScript and used for baculoviral expression of His-CRBN and untagged DDB1. Protein was expressed and purified essentially as described previously. The bacmid was produced in MAX Efficiency DH10Bac Competent Cells (Thermo Fisher Scientific) according to the manufacturer's instructions. To generate the P1 virus, 1×10^6 Sf9 cells were plated in each well of a six-well plate in 2 mL Sf-900 III SFM and transfected with 7 μg bacmid using Cellfectin II reagent (Thermo Fisher Scientific). After 6 h at 27° C., the media was replaced with 2 mL fresh Sf-900 III SFM. After three days, the supernatant was collected, centrifuged at 500×g for 5 min to remove cells and debris, transferred to new tubes, and stored at 4° C. To generate P2 virus, 2 mL P1 virus was added to 1×10^8 Sf9 cells in 50 mL Sf-900 III SFM and shaken at 27° C. for three days. The supernatant was collected and clarified as above. For protein expression, 5 mL P2 virus was added to each liter of Sf cells (2×10^6 cells/mL) and shaken at 27° C. for three days. Cells containing expressed protein were pelleted by centrifugation at 500×g for 5 min, the supernatant was removed, and pellets were stored at −80° C. until processing. […] The suspension was incubated on ice for 1 h, gently sonicated, and centrifuged for 1 h at 40,000×g at 4° C. The supernatant was applied to Ni-NTA Superflow resin (QIAGEN) equilibrated with lysis buffer. The resin was washed with 10 column volumes (CV) of lysis buffer, and proteins were eluted with 10 CV lysis buffer containing 500 mM imidazole. The solution was diluted to 200 mM NaCl using lysis buffer without NaCl and applied to a HiTrap ANX FF (High Sub) column (Cytiva) equilibrated with ANX binding buffer [50 mM Tris (pH 7.5), 200 mM NaCl, 3 mM TCEP]. The column was washed with 10 CV ANX binding buffer followed by 10 CV ANX wash buffer [50 mM Bis-Tris (pH 6.0), 200 mM NaCl, 3 mM TCEP]. A 20 CV linear gradient was then immediately applied from ANX binding buffer to ANX binding buffer containing 1 M NaCl using an AKTA avant chromatography system (Cytiva). The purest fractions were applied to a HiLoad 26/600 Superdex 200 pg size exclusion column equilibrated with 10 mM HEPES (pH 7.0), 240 mM NaCl, and 3 mM TCEP. Pure protein was concentrated to 20-30 mg/mL in Pierce PES Protein Concentrators (Thermo Fisher Scientific), flash frozen in liquid nitrogen, and stored at −80° C.
The assay buffer composition was 50 mM Tris (pH 7.5), 0.1% Triton X-100, 0.01% bovine serum albumin, and 1 mM DTT. […] Lastly, 5 μL/well of 8 nM Tb-anti-His and 8 nM His-CRBN/DDB1 in assay buffer was added. […] The plates were then protected from light exposure and incubated for 60 minutes at room temperature (RT). After incubation, the TR-FRET signal from each well was collected with a PHERAstar FS Microplate Reader (BMG Labtech). The percent inhibition for each well was calculated using equation 2: […]

Structure (SMILES)	IC50 (PXR [1]) [µM]	inhibition at 10 µM (PXR [1]) [%]	inhibition at 10 µM (PXR [2]) [%]	IC50 (PXR [2]) [µM]	inhibition at 10 µM (PXR [3]) [%]	IC50 (PXR [3]) [µM]	EC50 (His-CRBN/DDB1) [µM]
COc1ccc(OC)c(-n2nnc(C(=O)Oc3cccc4c3C(=O)N(C3CCC(=O)NC3=O)C4=O)c2C)c1 (stereo not drawn) [Compound M2, 2-(2,6-dioxopiperidin-3-yl)-1,3-dioxoisoindolin-4-yl 1-(2,5-dimethoxyphenyl)-5-methyl-1H-1,2,3-triazole-4-carboxylate]	2.69 ± 1.33	46					
COc1ccc(OC)c(-n2nnc(C(=O)Nc3cc(Nc4cccc5c4C(=O)N(C4CCC(=O)NC4=O)C5=O)cc(C(C)(C)C)c3)c2C)c1 (stereo not drawn) [Compound M5, N-(3-(tert-butyl)-5-((2-(2,6-dioxopiperidin-3-yl)-1,3-dioxoisoindolin-4-yl)amino)phenyl)-1-(2,5-dimethoxyphenyl)-5-methyl-1H-1,2,3-triazole-4-carboxamide]	0.083 ± 0.0041	69	141	0.0078 ± 0.002	107	0.052 ± 0.0066	
COc1ccc(OC)c(-n2nnc(C(=O)Nc3cc(C(C)(C)C)ccc3OCCCCNc3cccc4c3CN(C3CCC(=O)NC3=O)C4=O)c2C)c1 (stereo not drawn) [Compound M13, N-(5-(tert-butyl)-2-(4-((2-(2,6-dioxopiperidin-3-yl)-1-oxoisoindolin-4-yl)amino)butoxy)phenyl)-1-(2,5-dimethoxyphenyl)-5-methyl-1H-1,2,3-triazole-4-carboxamide]					40	41 ± 5.3	
COc1ccc(OC)c(-n2nnc(C(=O)Nc3cc(OCCCCNc4cccc5c4CN(C4CCC(=O)NC4=O)C5=O)cc(C(C)(C)C)c3)c2C)c1 (stereo not drawn) [Compound M14, N-(3-(tert-butyl)-5-(4-((2-(2,6-dioxopiperidin-3-yl)-1-oxoisoindolin-4-yl)amino)butoxy)phenyl)-1-(2,5-dimethoxyphenyl)-5-methyl-1H-1,2,3-triazole-4-carboxamide]	0.13 ± 0.051	22	94	0.43 ± 0.14	82	1.86 ± 0.53	
COc1ccc(OC)c(-n2nnc(C(=O)Nc3cc(NC(=O)CCCNC(=O)COc4cccc5c4C(=O)N(C4CCC(=O)NC4=O)C5=O)cc(C(C)(C)C)c3)c2C)c1 (stereo not drawn) [Compound M15, N-(3-(tert-butyl)-5-(4-(2-((2-(2,6-dioxopiperidin-3-yl)-1,3-dioxoisoindolin-4-yl)oxy)acetamido)butanamido)phenyl)-1-(2,5-dimethoxyphenyl)-5-methyl-1H-1,2,3-triazole-4-carboxamide]	2.19 ± 1.35	30					
COc1ccc(OC)c(-n2nnc(C(=O)Nc3cc(OCCCCCCCCOc4cccc5c4C(=O)N(C4CCC(=O)NC4=O)C5=O)cc(C(C)(C)C)c3)c2C)c1 (stereo not drawn) [Compound M16, N-(3-(tert-butyl)-5-((8-((2-(2,6-dioxopiperidin-3-yl)-1,3-dioxoisoindolin-4-yl)oxy)octyl)oxy)phenyl)-1-(2,5-dimethoxyphenyl)-5-methyl-1H-1,2,3-triazole-4-carboxamide]					57	2.02 ± 0.47	
COc1ccc(OC)c(-n2nnc(C(=O)Nc3cc(NC(=O)COCCOCCOCCOCCNc4cccc5c4C(=O)N(C4CCC(=O)NC4=O)C5=O)cc(C(C)(C)C)c3)c2C)c1 (stereo not drawn) [Compound M17, N-(3-(tert-butyl)-5-(14-((2-(2,6-dioxopiperidin-3-yl)-1,3-dioxoisoindolin-4-yl)amino)-3,6,9,12-tetraoxatetradecanamido)phenyl)-1-(2,5-dimethoxyphenyl)-5-methyl-1H-1,2,3-triazole-4-carboxamide]			84	1.98 ± 0.25	70		
COc1ccc(OC)c(-n2nnc(C(=O)Nc3cc(C(C)(C)C)ccc3OCCCCCCCCOc3cccc4c3C(=O)N(C3CCC(=O)NC3=O)C4=O)c2C)c1 (stereo not drawn) [Compound M19, N-(5-(tert-butyl)-2-((8-((2-(2,6-dioxopiperidin-3-yl)-1,3-dioxoisoindolin-4-yl)oxy)octyl)oxy)phenyl)-1-(2,5-dimethoxyphenyl)-5-methyl-1H-1,2,3-triazole-4-carboxamide]					30	2.52 ± 1.38	
COc1ccc(OC)c(-n2nnc(C(=O)Nc3cc(C(C)(C)C)ccc3OCCOCCOCCOCCOCCOCCOc3cccc4c3C(=O)N(C3CCC(=O)NC3=O)C4=O)c2C)c1 (stereo not drawn) [Compound M20, N-(5-(tert-butyl)-2-((17-((2-(2,6-dioxopiperidin-3-yl)-1,3-dioxoisoindolin-4-yl)oxy)-3,6,9,12,15-pentaoxaheptadecyl)oxy)phenyl)-1-(2,5-dimethoxyphenyl)-5-methyl-1H-1,2,3-triazole-4-carboxamide]	4.9 ± 0.8	64			58	6.33 ± 0.74	
COc1ccc(OC)c(-n2nnc(C(=O)Nc3cc(C(C)(C)C)ccc3OCCOCCOCCOCCN3C(=O)CCC(N4Cc5c(N)cccc5C4=O)C3=O)c2C)c1 (stereo not drawn) [Compound N2, N-(2-(2-(2-(2-(2-(3-(4-amino-1-oxoisoindolin-2-yl)-2,6-dioxopiperidin-1-yl)ethoxy)ethoxy)ethoxy)ethoxy)-5-(tert-butyl)phenyl)-1-(2,5-dimethoxyphenyl)-5-methyl-1H-1,2,3-triazole-4-carboxamide]	7.23 ± 4.88	27			32	5 ± 1.16	
COc1ccc(OC)c(-n2nnc(C(=O)Nc3cc(OCCCCN4C(=O)CCC(N5Cc6c(N)cccc6C5=O)C4=O)cc(C(C)(C)C)c3)c2C)c1 (stereo not drawn) [Compound N4, N-(3-(4-(3-(4-amino-1-oxoisoindolin-2-yl)-2,6-dioxopiperidin-1-yl)butoxy)-5-(tert-butyl)phenyl)-1-(2,5-dimethoxyphenyl)-5-methyl-1H-1,2,3-triazole-4-carboxamide]	0.087 ± 0.022	37	97	0.044 ± 0.008	103	0.17 ± 0.0045	
COc1ccc(OC)c(-n2nnc(C(=O)Nc3cc(OCCCCCCCCN4C(=O)CCC(N5Cc6c(N)cccc6C5=O)C4=O)cc(C(C)(C)C)c3)c2C)c1 (stereo not drawn) [Compound N6, N-(3-((8-(3-(4-amino-1-oxoisoindolin-2-yl)-2,6-dioxopiperidin-1-yl)octyl)oxy)-5-(tert-butyl)phenyl)-1-(2,5-dimethoxyphenyl)-5-methyl-1H-1,2,3-triazole-4-carboxamide]					11	6.51 ± 0.71	
COc1ccc(OC)c(-n2nnc(C(=O)Nc3cc(OCCOCCOCCOCCOCCOCCN4C(=O)CCC(N5C(=O)c6cccc(N)c6C5=O)C4=O)cc(C(C)(C)C)c3)c2C)c1 (stereo not drawn) [Compound N7, N-(3-((17-(3-(4-amino-1,3-dioxoisoindolin-2-yl)-2,6-dioxopiperidin-1-yl)-3,6,9,12,15-pentaoxaheptadecyl)oxy)-5-(tert-butyl)phenyl)-1-(2,5-dimethoxyphenyl)-5-methyl-1H-1,2,3-triazole-4-carboxamide]	0.43 ± 0.027	48	36	1.12 ± 0.3	83	0.52 ± 0.095	
COc1ccc(OC)c(-n2nnc(S(=O)(=O)c3ccc(C(C)(C)C)cc3)c2C)c1 [SPA70, reference compound]							> 3
